{"source": "patent US6410249B1", "about": "“Odorant receptors” (priority 1999, dated 2002)", "key": {"[1]": {"tested_on": "goldfish olfactory neurons", "experiment": "multi-unit recordings from the goldfish olfactory epithelium", "assay_type": "cell-based", "settings": "0.1 μM"}, "receptor 5.24 [2]": {"target": "T1, receptor 5.24 (Carassius auratus, UniProt Q9PW88)", "T1 construct": "The receptor 5.24 full length cDNA detects 1-2 bands in genomic DNA blots; expressed in transfected cells; host or cells: HEK 293 cells expressing SV40 large T antigen (293-TSA)", "T1 sequence (Q9PW88 25-877)": "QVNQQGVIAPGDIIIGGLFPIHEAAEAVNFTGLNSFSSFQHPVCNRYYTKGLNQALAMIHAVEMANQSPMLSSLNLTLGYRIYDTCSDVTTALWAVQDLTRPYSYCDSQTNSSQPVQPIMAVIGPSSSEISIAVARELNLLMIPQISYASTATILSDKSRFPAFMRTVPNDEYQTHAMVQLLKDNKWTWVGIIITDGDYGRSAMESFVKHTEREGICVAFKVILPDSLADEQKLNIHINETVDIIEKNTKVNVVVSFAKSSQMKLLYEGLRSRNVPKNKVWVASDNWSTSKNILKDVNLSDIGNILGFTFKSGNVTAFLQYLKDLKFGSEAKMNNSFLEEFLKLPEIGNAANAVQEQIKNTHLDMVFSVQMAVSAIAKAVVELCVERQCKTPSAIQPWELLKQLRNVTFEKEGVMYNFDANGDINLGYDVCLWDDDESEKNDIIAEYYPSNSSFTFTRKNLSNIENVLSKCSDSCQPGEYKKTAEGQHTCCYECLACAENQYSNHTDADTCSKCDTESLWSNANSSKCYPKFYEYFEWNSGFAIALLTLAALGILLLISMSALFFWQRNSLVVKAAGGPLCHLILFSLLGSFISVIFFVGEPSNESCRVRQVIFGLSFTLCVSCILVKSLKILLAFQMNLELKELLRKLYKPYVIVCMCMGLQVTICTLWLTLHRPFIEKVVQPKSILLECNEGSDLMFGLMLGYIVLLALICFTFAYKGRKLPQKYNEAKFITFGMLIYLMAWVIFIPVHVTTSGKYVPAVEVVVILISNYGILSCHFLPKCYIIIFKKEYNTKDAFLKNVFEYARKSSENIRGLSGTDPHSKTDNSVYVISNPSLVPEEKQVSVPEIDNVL", "experiment": "biochemical", "assay_type": "binding", "protocol": "Structure-Activity Properties of Compounds Interacting with the Cloned Goldfish Amino Acid Odorant Receptor. An understanding of how odorant receptors are used to encode olfactory information requires a characterization of the odorant specificities of individual receptor types. We therefore wished to determine the relative specificity of receptor 5.24 for structurally related ligands. […] Briefly, 3H-arginine binding to membranes from receptor 5.24-expressing HEK 293 cells was assayed in the absence or presence of varying concentrations of competitor ligands.\n(§1) Mammalian Cell Culture and DNA Transfections. For cell transfections, the receptor 5.24 cDNA insert was subcloned into two expression vectors: CMVI, which utilizes a human cytomegalovirus (CMV) immediate early promoter-enhancer plus the CMV intron A sequence to drive expression, and 608RX-2.2L, which is similar to CMVI except the cDNA insert is followed by an internal ribosome entry site (IRES)—enhanced green fluorescent protein (EGFP) coding sequence; 608RX-2.2L also contains a puromycin resistance gene. For transient assays, HEK 293 cells expressing the SV40 large T antigen (293 TSA cells) were transfected with the CMVI-receptor 5.24 or CMVI control plasmid using lipofectamine (Life Technologies) and harvested at 48 hours for membrane preparations. For stable cell lines, 293-TSA cells were transfected with the 608RX-2.2L-receptor 5.24 plasmid or a control 608RX-2.2L plasmid and selected in puromycin. Colonies showing high levels of EGFP fluorescence (as judged by epifluorescence microscopy) were picked, expanded, and screened for 3H-L-arginine binding (see below).\n(§2) Membrane Preparations and Ligand Binding Assays. Membranes for ligand binding assays were prepared by washing confluent cells three times with phosphate buffered saline (PBS), detaching cells with a PBS-based enzyme-free dissociation solution, and resuspending cells in ice-cold 5.0 mM Hepes, pH 7.4, 1.0 mM EDTA, 1.0 μg/ml leupeptin, 0.5 mM PMSF. All subsequent manipulations were performed on ice. After a 30 min incubation, the cell suspension was homogenized and centrifuged at 100,000×g for 30 min. Cell membrane pellets were washed twice by resuspension and centrifugation in binding buffer (20 mM Hepes, pH 7.4, 1.0 mM EDTA, 2.0 mM MgCl2, 1.0 μg/ml leupeptin, 0.5 mM PMSF), resuspended in binding buffer, and frozen at −80° C.\nSaturation binding assays were performed using 20-25 μg of membrane protein in a final volume of 100 μl binding buffer and increasing concentrations of [2,3-3H] L-arginine (specific activity=40 Ci/mmol; Dupont NEN). Non-specific binding was measured in the presence of 500 μM unlabeled L-arginine. Competition assays were performed with 500 nM [2,3-3H] L-arginine and increasing concentrations of competitor ligands. All incubations were performed at 4° C. for 60 min and terminated by rapid filtration through Whatman GF/C filters pretreated with ice cold 0.1% polyethyleneimine. Filters were washed three times with 4.0 ml ice cold 20 mM Hepes, pH 7.4, and retained radioactivity was measured by scintillation counting."}, "receptor 5.24 [3]": {"target": "T1, receptor 5.24", "experiment": "3H-L-arginine saturation binding to membranes of receptor 5.24-expressing HEK 293 cells", "set-up": "species or system goldfish", "settings": "summary statement; read-out: Kd (high affinity interaction)", "excerpt": "High-Affinity Binding of Radiolabeled L-Arginine to the Cloned Goldfish Odorant Receptor. To determine the affinity of the cloned goldfish amino acid receptor for basic amino acids, we characterized the ligand-receptor interaction by radiolabeled ligand binding to receptors expressed in mammalian cells. Human embryonic kidney (HEK) 293 cells were transfected with expression plasmids containing the receptor 5.24 cDNA insert. […] We next wished to determine what second messenger pathway receptor 5.24 couples to in HEK 293 cells. Control cells or cells expressing receptor 5.24 were exposed to varying concentrations of arginine and assayed for the accumulation of IP3 and cAMP.\nas §1, with “below). In five independent receptor 5.24-transfected stable cell lines, receptor densities (Rt) varied between 0.5 and 6.0 pmol L-arginine binding sites/mg membrane protein. […] All competition binding assays and signal transduction studies were performed using the stable cell line 5.24-20 (Rt=2.0 pmol /mg) and a control cell line (2.2-9) stably transfected with vector alone (Rt=0.03 pmol/mg).” for “below).”\nas §2\nSaturation binding assays were performed using 20-25 μg of membrane protein in a final volume of 100 μl binding buffer and increasing concentrations of [2,3-3H] L-arginine (specific activity=40 Ci/mmol; Dupont NEN). Non-specific binding was measured in the presence of 500 μM unlabeled L-arginine. Competition assays were performed with 500 nM [2,3-3H] […] Filters were washed three times with 4.0 ml ice cold 20 mM Hepes, pH 7.4, and retained radioactivity was measured by scintillation counting. […] Data were analyzed by nonlinear curve fitting using Origin software (Microcal). […]"}, "receptor 5.24 [4]": {"target": "T1, receptor 5.24", "experiment": "evoked currents in Xenopus oocytes expressing receptor 5.24 (two-electrode voltage clamp)", "assay_type": "cell-based, goldfish", "excerpt": "Identification by Expression Cloning of a cDNA Encoding a Goldfish Odorant Receptor. RNA was synthesized from pools of goldfish olfactory cDNA clones (900 individual clones per pool) and injected into Xenopus oocytes together with synthetic RNAs encoding GIRK and Gaolf. Oocytes were then screened for responses upon exposure to odorant cocktails containing amino acids, bile acids, or sex pheromones. […] The response to amino acids was biphasic, beginning with an oscillating inward current above the basal inward K+ current, followed by a decline in inward current to below the basal level. Such a biphasic effect is thought to be caused by Gaq-mediated activation of phospholipase C (responsible for the intial inward current via IP3) and protein kinase C (leading to suppression of the K+ current through phosphorylation of GIRK channel subunits) (Sharon et al., 1997).\nIterative subdivision of pool 19 by sib-selection allowed the isolation of a single clone encoding a receptor, designated receptor 5.24.\nOocytes were removed from anesthetized Xenopus laevis and treated with collagenase. Forty nanograms of cRNA from each cDNA library pool (˜40 pg cRNA/clone) was injected per oocyte, together with cRNAs encoding Gaolf and the GIRK subunits Kir 3.1 and Kir 3.4 (˜30 pg each). Approximately 30 pools were assayed before these primary screens were halted. Injected oocytes were incubated at 17° C. for over 80 hours prior to electrophysiological recordings. Recordings were performed by two-electrode voltage clamping using an Axoclamp-2A amplifier (Axon Instruments) or a Dagan CA-1 amplifier (Dagan Corp.). Data acquisition and analysis were performed using pCLAMP software (Axon Instruments). Membrane potential was held at −80 mV. For trials involving GIRK, oocytes were first perfused with Na-MBSH (88 mM NaCl, 1 mM KCl, 2.4 mM NaHCO3, 10 mM Hepes, pH 7.5, 0.82 mM MgSO4[7H2O], 0.33 mM Ca[NO3]2[4H2O], 0.41 mM CaCl2[2H2O]), and then switched into K-MBSH, which contains elevated K+ (88 mM KCl, 1 mM NaCl) until the basal current had stabilized (˜45 seconds) before challenging with agonist. Recordings on oocytes injected with receptor 5.24 in the absence of Gaolf and/or GIRK subunits were performed in Na-MBSH. Oocytes were exposed to solutions containing different agonists by switching bathing solutions with an 8 channel valve (Hamilton)."}, "salmon olfactory neurons": {"tested_on": "salmon olfactory neurons", "settings": "0.01-10 μM, isolated salmon olfactory neurons; cited from earlier work"}}, "note": "Where two headings read alike, the source gives them in different places.", "data": [{"smiles": "CCCCCC(=O)/C=C/[C@@H]1[C@@H](C/C=C\\CCCC(=O)O)[C@@H](O)C[C@H]1O", "note": "[1 5-ketoprostaglandin F2a]", "values": [{"measurement": "locations that responded", "setting": "[1]", "result": "25 out of 65"}]}, {"smiles": "NCCCC[C@H](N)C(=O)O", "note": "[L-Lysine]", "values": [{"measurement": "Ki", "setting": "receptor 5.24 [2]", "result": 90, "unit": "nM"}, {"measurement": "binding to receptor 5.24, in words", "setting": "receptor 5.24 [2]; comparative binding studies", "result": "highest affinities"}, {"measurement": "Kd", "setting": "receptor 5.24 [3]", "result": "~100", "unit": "nM"}]}, {"smiles": "N[C@@H](CO)C(=O)O", "note": "[L-Serine]", "values": [{"measurement": "Ki", "setting": "receptor 5.24 [2]; displacement of 3H-L-arginine from membranes of HEK 293 cells expressing receptor 5.24, read-out: Ki (binding affinity)", "result": 2800, "unit": "nM"}, {"measurement": "activation of receptor 5.24 (evoked currents), in words", "setting": "receptor 5.24 [4]", "result": "smaller responses"}, {"measurement": "fraction of cells sensitive", "setting": "salmon olfactory neurons", "result": "~60", "unit": "%"}]}]}
